Assay results as given in patent US20100298141A1, “SUBSTITUTED PYRIDINE N-OXIDE HERBICIDES” (E. I. DU PONT DE NEMOURS AND COMPANY, priority 2007, published 2010).

Legend:
[1] = tested on: common ragweed; assay: Test C pre-/postemergence test; type: in vivo, Ambrosia elation
Procedure, shortened: (§1)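 Compounds in a non-phytotoxic solvent with surfactant applied preemergence to seeded pots and, at the same time, postemergence to plants 2–18 cm tall (1- to 4-leaf stage). Paddy tests: pots flooded to 3 cm, compound applied into the water, depth held throughout.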

[2] = tested on: corn; assay: Test A pre-/postemergence greenhouse test; type: in vivo, Zea mays; conditions: for Plant response rating, Corn: 0 to 100 scale where 0 is no effect and 100 is complete control; for Corn plant response rating: 0 to 100 scale
Procedure, shortened: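 Greenhouse herbicide screen, pre- and postemergence in parallel. Soil: loam plus sand. Formulation: non-phytotoxic solvent mix with surfactant. Postemergence stage: one to two leaves, 2–10 cm height. Evaluation: visual injury, compared with untreated controls, about 10 days after treatment.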

[3] = tested on: green foxtail; assay: Test C pre-/postemergence test; type: in vivo, Setaria viridis
Procedure, shortened: as §1

[4] = tested on: mustard; assay: Test F preemergence test; type: in vivo, Brassica nigra; conditions: scale 0 to 100
Description: (§2) Seeds of plant species selected from bermudagrass (Cynodon dactylon), Surinam grass (Brachiaria decumbens), large crabgrass (Digitaria sanguinalis), green foxtail (Setaria viridis), goosegrass (Eleusine indica), johnsongrass (Sorghum halepense), kochia (Kochia scoparia), pitted morningglory (Ipomoea lacunosa), purple nutsedge (Cyperus rotundus), common ragweed (Ambrosia elation), mustard (Brassica nigra), guineagrass (Panicum maximum), […] (Paspalum dilatatum), barnyardgrass (Echinochloa crus-galli), southern sandbur (Cenchrus echinatus), common sowthistle (Sonchus oleraceous), prickly […] spinosa), Italian ryegrass (Lolium multiflorum), common purslane (Portulaca oleracea), broadleaf signalgrass (Brachiaria platyphylla), common groundsel (Senecio vulgaris), common chickweed (Stellaria media), Virginia dayflower (Commelina virginica), annual bluegrass (Poa annua), naked crabgrass (Digitaria nuda), […] cochinchinensis), quackgrass (Elytrigia repens), Canada horseweed (Conyza canadensis), field bindweed (Convolvulus arvensis), […] (Bidens bipinnata), common mallow (Malva sylvestris), Russian thistle (Salsola kali), and sugarcane (Saccharum officinarum) were planted and treated preemergence with test chemicals formulated in a non-phytotoxic solvent mixture which included a surfactant. At a different time, sugarcane was treated with postemergence applications of some of the test chemicals formulated in the same manner. Plants were approximately 3- to 4-leaf stage for the postemergence treatments. Treated plants and controls were maintained in a greenhouse for 14 to 21 days, after which time all species were compared to controls and visually evaluated. […] A dash (-) response means no test result.

[5] = tested on: bermudagrass; assay: Test F preemergence test; type: in vivo, Cynodon dactylon; conditions: scale 0 to 100
Description: as §2

[6] = tested on: prickly sida; assay: Test F preemergence test; type: in vivo, Sida spinosa; conditions: scale 0 to 100
Description: as §2

[7] = tested on: Virginia dayflower; assay: Test F preemergence test; type: in vivo, Commelina virginica; conditions: scale 0 to 100
Description: as §2

[8] = tested on: broadleaf signalgrass; assay: Test F preemergence test; type: in vivo, Brachiaria platyphylla; conditions: scale 0 to 100; for Signalgrass plant response rating: 125 g ai/ha
Description: as §2

[9] = tested on: blackgrass; assay: Test C pre-/postemergence test; type: in vivo, Alopecurus myosuroides
Procedure, shortened: as §1

[10] = tested on: dallisgrass; assay: Test F preemergence test; type: in vivo, Paspalum dilatatum; conditions: scale 0 to 100
Description: as §2

[11] = tested on: quackgrass; assay: Test F preemergence test; type: in vivo, Elytrigia repens; conditions: scale 0 to 100
Description: as §2

[12] = tested on: kochia; assay: Test F preemergence test; type: in vivo, Kochia scoparia; conditions: scale 0 to 100
Description: as §2

[13] = tested on: Surinam grass; assay: Test F preemergence test; type: in vivo, Brachiaria decumbens; conditions: scale 0 to 100; for Surinam Grass plant response rating: 125 g ai/ha, preemergence; for Plant response rating, Surinam Grass: Preemergence
Description: as §2

[14] = 62 g ai/ha, Preemergence, scale 0 to 100
[15] = 125 g ai/ha, preemergence, scale 0 (no effect) to 100 (complete control)
[16] = Preemergence, 31 g ai/ha, scale 0 to 100 (0 no effect, 100 complete control)
[17] = preemergence, 250 g ai/ha, scale 0 (no effect) to 100 (complete control)
[18] = Postemergence, 500 g ai/ha, 0 is no effect, 100 is complete control
[19] = Preemergence, 125 g ai/ha, 0 no effect, 100 complete control
[20] = Postemergence, 125 g ai/ha, scale 0 to 100, 0 no effect, 100 complete control
[21] = Postemergence, 250 g ai/ha, scale 0 to 100, 0 no effect, 100 complete control

SMILES: Cc1cc([S+]([O-])Cc2c(C(F)(F)F)nn(C)c2OCC(F)(F)F)[n+]([O-])cc1Cl (centres unmarked) [Compound 70]
- Ragweed plant response rating [1, 14]: 80
- Ragweed plant response rating [1, 15]: 80
- Plant response rating, Ragweed [1, 16]: 0
- Ragweed plant response rating [1, 17]: 100
- Plant response rating, Corn ([2]; Postemergence, 125 g ai/ha): 50
- Corn plant response rating [2, 18]: 80
- Corn plant response rating [2, 19]: 20
- Plant response rating, Corn ([2]; Preemergence, 500 g ai/ha): 90
- Foxtail, Green plant response rating [3, 14]: 100
- Foxtail, Green plant response rating [3, 15]: 100
- Plant response rating, Foxtail, Green [3, 16]: 100
- Foxtail, Green plant response rating [3, 17]: 100
- Plant response rating, Black Mustard ([4]; 16 g ai/ha, preemergence): 90
- Black Mustard plant response rating ([4]; 62 g ai/ha, Preemergence): 100
- Black Mustard plant response rating ([4]; 125 g ai/ha, preemergence): 100
- Plant response rating, Black Mustard ([4]; Preemergence, 31 g ai/ha): 90
- Plant response rating, Bermudagrass ([5]; 16 g ai/ha, preemergence): 40
- Bermudagrass plant response rating ([5]; 62 g ai/ha, Preemergence): 98
- Bermudagrass plant response rating ([5]; 125 g ai/ha, preemergence): 100
- Plant response rating, Bermudagrass ([5]; Preemergence, 31 g ai/ha): 80
- Plant response rating, Prickly Sida ([6]; 16 g ai/ha, preemergence): 60
- Prickly Sida plant response rating ([6]; 62 g ai/ha, Preemergence): 90
- Prickly Sida plant response rating ([6]; 125 g ai/ha, preemergence): 90
- Plant response rating, Prickly Sida ([6]; Preemergence, 31 g ai/ha): 80
- Plant response rating, Dayflower ([7]; 16 g ai/ha, preemergence): 90
- Dayflower plant response rating ([7]; 62 g ai/ha, Preemergence): 100
- Dayflower plant response rating ([7]; 125 g ai/ha, preemergence): 100
- Plant response rating, Dayflower ([7]; Preemergence, 31 g ai/ha): 100
- Signalgrass plant response rating ([8]; preemergence): 90
- Plant response rating, Signalgrass ([8]; Preemergence, 62 g ai/ha): 90
- Blackgrass plant response rating [9, 14]: 100
- Blackgrass plant response rating [9, 15]: 100
- Plant response rating, Blackgrass [9, 16]: 100
- Blackgrass plant response rating [9, 17]: 100
- Dallisgrass plant response rating ([10]; 62 g ai/ha, Preemergence): 75
- Dallisgrass plant response rating ([10]; 125 g ai/ha, preemergence): 98
- Plant response rating, Dallisgrass ([10]; Preemergence, 31 g ai/ha): 25
- Plant response rating, Quackgrass ([11]; 16 g ai/ha, preemergence): 75
- Quackgrass plant response rating ([11]; 62 g ai/ha, Preemergence): 95
- Quackgrass plant response rating ([11]; 125 g ai/ha, preemergence): 100
- Plant response rating, Quackgrass ([11]; Preemergence, 31 g ai/ha): 75
- Plant response rating, Kochia ([12]; 16 g ai/ha, preemergence): 95
- Kochia plant response rating ([12]; 62 g ai/ha, Preemergence): 100
- Kochia plant response rating ([12]; 125 g ai/ha, preemergence): 100
- Plant response rating, Kochia ([12]; Preemergence, 31 g ai/ha): 95
- Surinam Grass plant response rating [13]: 100
- Plant response rating, Surinam Grass ([13]; 62 g ai/ha): 98
- Plant response rating, Surinam Grass ([13]; 31 g ai/ha): 40

SMILES: Cn1nc(C(F)(F)C(F)(F)F)c(C[S+]([O-])c2cccc[n+]2[O-])c1OCC(F)(F)F (centres unmarked) [Compound 79]
- Ragweed plant response rating [1, 14]: 50
- Ragweed plant response rating [1, 15]: 100
- Plant response rating (0 to 100), Ragweed ([1]; Postemergence, 31 g ai/ha): 0
- Plant response rating (0 to 100), Ragweed ([1]; Postemergence, 62 g ai/ha): 40
- Plant response rating, Ragweed [1, 20]: 45
- Plant response rating, Ragweed [1, 21]: 50
- Plant response rating, Ragweed [1, 16]: 50
- Ragweed plant response rating [1, 17]: 100
- Plant response rating, Corn ([2]; Postemergence, 125 g ai/ha): 20
- Corn plant response rating [2, 18]: 80
- Corn plant response rating [2, 19]: 0
- Plant response rating, Corn ([2]; Preemergence, 500 g ai/ha): 80
- Foxtail, Green plant response rating [3, 14]: 85
- Foxtail, Green plant response rating [3, 15]: 100
- Plant response rating (0 to 100), Foxtail, Green ([3]; Postemergence, 31 g ai/ha): 0
- Plant response rating (0 to 100), Foxtail, Green ([3]; Postemergence, 62 g ai/ha): 60
- Plant response rating, Foxtail, Green [3, 20]: 70
- Plant response rating, Foxtail, Green [3, 21]: 85
- Plant response rating, Foxtail, Green [3, 16]: 65
- Foxtail, Green plant response rating [3, 17]: 100
- Plant response rating, Black Mustard ([4]; 16 g ai/ha, preemergence): 100
- Black Mustard plant response rating ([4]; 62 g ai/ha, Preemergence): 100
- Black Mustard plant response rating ([4]; 125 g ai/ha, preemergence): 100
- Plant response rating, Black Mustard ([4]; Preemergence, 31 g ai/ha): 100
- Plant response rating, Bermudagrass ([5]; 16 g ai/ha, preemergence): 10
- Bermudagrass plant response rating ([5]; 62 g ai/ha, Preemergence): 100
- Bermudagrass plant response rating ([5]; 125 g ai/ha, preemergence): 100
- Plant response rating, Bermudagrass ([5]; Preemergence, 31 g ai/ha): 65
- Plant response rating, Prickly Sida ([6]; 16 g ai/ha, preemergence): 0
- Prickly Sida plant response rating ([6]; 62 g ai/ha, Preemergence): 100
- Prickly Sida plant response rating ([6]; 125 g ai/ha, preemergence): 100
- Plant response rating, Prickly Sida ([6]; Preemergence, 31 g ai/ha): 20
- Dayflower plant response rating ([7]; 62 g ai/ha, Preemergence): 50
- Dayflower plant response rating ([7]; 125 g ai/ha, preemergence): 100
- Plant response rating, Dayflower ([7]; Preemergence, 31 g ai/ha): 20
- Plant response rating, Signalgrass ([8]; 16 g ai/ha, preemergence): 0
- Signalgrass plant response rating ([8]; preemergence): 100
- Plant response rating, Signalgrass ([8]; Preemergence, 62 g ai/ha): 30
- Plant response rating, Signalgrass ([8]; Preemergence, 31 g ai/ha): 0
- Blackgrass plant response rating [9, 14]: 100
- Blackgrass plant response rating [9, 15]: 100
- Plant response rating (0 to 100), Blackgrass ([9]; Postemergence, 31 g ai/ha): 70
- Plant response rating (0 to 100), Blackgrass ([9]; Postemergence, 62 g ai/ha): 80
- Plant response rating, Blackgrass [9, 20]: 90
- Plant response rating, Blackgrass [9, 21]: 90
- Plant response rating, Blackgrass [9, 16]: 98
- Blackgrass plant response rating [9, 17]: 100
- Plant response rating, Dallisgrass ([10]; 16 g ai/ha, preemergence): 0
- Dallisgrass plant response rating ([10]; 62 g ai/ha, Preemergence): 90
- Dallisgrass plant response rating ([10]; 125 g ai/ha, preemergence): 100
- Plant response rating, Dallisgrass ([10]; Preemergence, 31 g ai/ha): 40
- Plant response rating, Quackgrass ([11]; 16 g ai/ha, preemergence): 0
- Quackgrass plant response rating ([11]; 62 g ai/ha, Preemergence): 80
- Quackgrass plant response rating ([11]; 125 g ai/ha, preemergence): 95
- Plant response rating, Quackgrass ([11]; Preemergence, 31 g ai/ha): 35
- Plant response rating, Kochia ([12]; 16 g ai/ha, preemergence): 50
- Kochia plant response rating ([12]; 62 g ai/ha, Preemergence): 100
- Kochia plant response rating ([12]; 125 g ai/ha, preemergence): 100
- Plant response rating, Kochia ([12]; Preemergence, 31 g ai/ha): 100
- Surinam Grass plant response rating [13]: 100
- Plant response rating, Surinam Grass ([13]; 62 g ai/ha): 100
- Plant response rating, Surinam Grass ([13]; 31 g ai/ha): 30
